Values joined by “and” are separate entries in the source; they are usually repeats but may differ in a detail not shown here. Identical values can stand only once.
Experiments:
[1] = target: T1, FIH (Homo sapiens, UniProt Q9NWT6); assay: Rapid quench-flow, FIH pre-steady-state product and succinate formation; format: biochemical; conditions: for Rapid quench-flow kproduct / Rapid quench-flow ksuccinate: 0.5 mM apo-FIH, 0.4 mM Fe(II), 5 mM 2OG, 1 mM substrate, 50 mM HEPES pH 7.5, O2-saturated buffer 1:1, 5 °C, quenched with 1% CF3CO2H; for Rapid quench-flow kproduct: hydroxylation by MALDI-TOF-MS, 1–3 separate experiments; for Rapid quench-flow ksuccinate: succinate by LC-MS
T1 construct: Full-length recombinant FIH, two- and three-consensus ankyrin repeats (2CA and 3CA) were produced as described; His6 (cleaved yes); made in house; host or cells: Escherichia coli BL21(DE3)
Procedure: Rapid quench-flow experiments were performed using the same conditions and preparation of the assay mixture as used in stopped-flow experiments. Rapid quench-flow equipment (TgK Scientific Ltd.) in an anaerobic glove box was used for the experiments. Samples were quenched with 1% CF3CO2H and analyzed using MALDI-TOF-MS (peptide hydroxylation) as described above or liquid chromatography-mass spectrometry (LC-MS, for succinate production). For LC-MS, chromatographic separation was performed at 50 °C using a Waters ACQUITY BEH Amide 1.7-μm, 2.1 × 100-mm column on a Waters ACQUITY^TM ultraperformance liquid chromatography system (Waters Corp., Milford, MA). The following eluents were used: mobile phase A: 10% H2O, 90% acetonitrile (v/v), 10 mM ammonium formate; mobile phase B: 50% H2O, 50% acetonitrile (v/v), 10 mM ammonium formate. The elution gradient was 0–7.0 min linear from 10 to 30% B, and 7.0–9.0 min at 10% B for re-equilibration of the column. A constant flow rate of 0.4 ml/min was used. Analytes were detected in negative ionization mode using single reaction monitoring on a Quattro triple quadrupole mass spectrometer (Waters) with a cone voltage of 15 V and a capillary voltage of 3.0 kV. The desolvation temperature was set to 250 °C, and the source temperature was set to 120 °C.
FIGURE 9. Rapid quench-flow experiments showing FIH-catalyzed hydroxylation of HIF-1/2α CAD and ARD substrates. Reaction mixtures containing anaerobic 0.5 mM apo-FIH, 0.4 mM Fe(II), 5 mM 2OG, 1 mM peptide in HEPES 50 mM (pH 7.5) were rapidly mixed with O2-saturated buffer at 5 °C in a 1:1 ratio and then quenched with 1% CF3CO2H at defined time points. The data were fitted with the function, y = a·(1 − exp(−bx)) + c. Hydroxylation levels were assessed by MALDI-TOF-MS. A, hydroxylation of HIF-1α CAD, 1CA, and tankyrase-1 peptide substrates (19- and 20-mers); B, hydroxylation of HIF-1α, HIF-2α, and tankyrase-1 35-mer peptide substrates; C, hydroxylation of 1CA, 2CA, and 3CA. Data plotted were cumulatively acquired over the course of 1–3 separate experiments.

[2] = CD spectroscopy and thermal denaturation of 2CA and 3CA; format: physicochemical; conditions: for secondary structure in solution by circular dichroism: 0.2 mg/ml protein in 10 mM sodium phosphate buffer pH 8.0 (Fig. 7), thermal denaturation 10 to 90 °C
Procedure: CD spectra were recorded using a Chirascan CD/fluorimeter (Applied Photophysics) spectrometer. Measurements were carried out at 20 °C in a 0.1 cm path length quartz cuvette, with protein concentration of 0.125 mg/ml in 5 mM sodium phosphate buffer (pH 8.0). Spectra were recorded in the wavelength range of 260–190 nm at 0.5-nm intervals, and each spectrum represents an average of three scans. Spectra were baseline-corrected by subtraction of the buffer spectrum. Data were expressed as the mean residue ellipticity ([θ], degrees·cm^2·dmol^−1). Thermal denaturation experiments were performed under the same conditions. The ellipticity at 220 nm (θ220) was monitored from 10 to 90 °C.
FIGURE 7. CD spectroscopic comparison of 2CA and 3CA secondary structure. Thermal denaturation experiments of 2CA and 3CA are shown. Conditions were as follows. 0.2 mg/ml protein in 10 mM sodium phosphate buffer (pH 8.0) was studied at 222 nm for thermal denaturation experiments between 10 and 90 °C. A, melting curves of 2CA. B, spectra of 2CA between 260 and 190 nm at 10 °C, after heating to 90 °C and after cooling again to 10 °C. C, melting curves of 3CA. D, spectra of 3CA between 260 and 190 nm at 10 °C, after heating to 90 °C, where the α-helical structure is predominantly lost, and after cooling again to 10 °C, where the structure is largely regained.

[3] = target: T2, PHD2 (Homo sapiens, UniProt Q9GZT9); assay: O2 dependence of PHD2-catalyzed hydroxylation (sealed vials, N2/O2 mixes); format: biochemical; conditions: PHD2 with the named 19-mer substrate; 4 μM PHD2, 50 μM Fe(II), 4 mM L-ascorbate, 50 mM HEPES pH 7.5, 37 °C, O2 levels set by mass flow controllers; triplicate assays; read-out: Km^app(O2)
T2 construct: The catalytic domain of PHD2 (residues 181–426) was purified as described; made in house
Procedure: The O2 dependence of FIH-catalyzed reactions was determined by conducting enzymatic assays in an “In vivo 500 Hypoxia Workstation” (Ruskinn) using buffers pre-equilibrated under different pO2 values for 24 h. The O2 dependence of PHD2-catalyzed reactions was determined by conducting enzymatic assays in sealed glass vials with variable N2/O2 contents ([42]). Reactions were stopped by spotting samples onto a matrix-assisted laser desorption/ionization-time of flight mass spectrometry (MALDI-TOF-MS) target plate and immediately mixing with α-cyano-4-hydroxycinnamic acid matrix. Hydroxylation levels were assessed by MALDI-TOF-MS as described ([46]).
FIGURE 4. O2 dependence of FIH- and PHD2-catalyzed hydroxylation of HIF-1/2α. A, O2 dependence of PHD2-catalyzed hydroxylation of HIF-1/2α CODD/NODD 19-mer peptides. 4 μM PHD2, peptide (varied), 50 μM Fe(II), 2OG (varied), 4 mM L-ascorbate in HEPES 50 mM (pH 7.5) were incubated at 37 °C. The different O2 levels were maintained using mass flow controllers ([42]), and the hydroxylation levels were analyzed by MALDI-TOF-MS. B, O2 dependence of FIH-catalyzed hydroxylation of CAD HIF-1/2α 35-mer peptides. Conditions were as follows. 5 μM FIH, 500 μM peptide, 50 μM Fe(II), 1 mM 2OG, 1 mM L-ascorbate in HEPES 50 mM (pH 7.5) were incubated at 37 °C in a hypoxia work station under different pO2. […] Error bars, S.D. of triplicate assays.

T1 sequence (Q9NWT6 whole entry): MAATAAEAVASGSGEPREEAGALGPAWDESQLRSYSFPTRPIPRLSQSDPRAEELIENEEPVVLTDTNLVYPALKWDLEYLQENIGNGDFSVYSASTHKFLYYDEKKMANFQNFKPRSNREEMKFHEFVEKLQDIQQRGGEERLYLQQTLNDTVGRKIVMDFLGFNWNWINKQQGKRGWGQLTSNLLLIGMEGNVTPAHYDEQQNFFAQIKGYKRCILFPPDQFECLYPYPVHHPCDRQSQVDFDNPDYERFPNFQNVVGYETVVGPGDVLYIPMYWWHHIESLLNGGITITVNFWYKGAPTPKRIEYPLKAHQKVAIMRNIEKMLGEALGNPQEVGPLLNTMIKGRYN
T2 sequence (Q9GZT9 181-426): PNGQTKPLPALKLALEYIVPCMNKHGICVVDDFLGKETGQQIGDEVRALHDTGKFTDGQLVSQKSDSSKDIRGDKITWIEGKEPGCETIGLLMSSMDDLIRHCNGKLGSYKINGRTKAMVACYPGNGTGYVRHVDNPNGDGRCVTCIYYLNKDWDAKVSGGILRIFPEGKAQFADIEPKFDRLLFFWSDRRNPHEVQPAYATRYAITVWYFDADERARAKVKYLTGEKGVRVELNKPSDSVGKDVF

Row | Sequence | Rapid quench-flow kproduct [1] | Rapid quench-flow ksuccinate [1] [s⁻¹] | other results
1 | DESGLPQLTSYDCEVNAPIQGSRNLLQGEELLRAL [HIF-1α CAD35-mer] | 0.33 s⁻¹ | 0.3 ± 0.1 | Rapid quench-flow kproduct ([1]; listed as CAD HIF-1α35-mer): 0.33 ± 0.07 s⁻¹
2 | GSHMGSDLGKKLLEAARAGQDDEVRILMANGADVAAKDKNGSTPLHLAARNGHLEVVKLLLEAGADVNAQDKFGKTAFDISIDNGNEDLAEILQ [3CA, recombinant three-consensus ankyrin repeat protein produced in Escherichia coli] | 0.051 s⁻¹ and 0.051 ± 0.001 s⁻¹ |  | secondary structure in solution by circular dichroism [2]: folded in solution
3 | SDKNGSTPLHLAARNGHLEVVKLLLEHGADVNAQDKWGKTAFDISIDNGNEDLAEILQ [2CA, recombinant two-consensus ankyrin repeat protein produced in Escherichia coli] | 0.5 ± 0.1 s⁻¹ |  | secondary structure in solution by circular dichroism [2]: does not possess significant secondary structure; temperature above which the protein is unfolded (CD) ([2]; thermal denaturation between 10 and 90 °C, sodium phosphate buffer pH 8.0): > 10 °C
4 | ELDLETLAPYIPMDGEDFQ [HIF-2α CODD, 19-mer fragment (523–541) of the HIF-2α C-terminal oxygen-dependent degradation domain, PHD2 substrate] |  |  | Km [3]: > 450 µM
5 | ESYLLPELTRYDCEVNVPVLGSSTLLQGGDLLRAL [HIF-2α CAD35-mer] | 0.12 ± 0.01 s⁻¹ | 0.11 ± 0.03 | 
6 | AAGYNNLEVAEYLLEHGADVNAQDKGGLIPLHNAA [tnkrs-1_35-mer, 35-mer fragment of tankyrase-1, ARD substrate of FIH] | 11 ± 3 s⁻¹ | 10 ± 3 | Rapid quench-flow kproduct ([1]; listed as tnkrs-1_35mer): 11 s⁻¹; product formation rate, fold faster than for the 20-mer ([1]; rapid quench-flow, 5 °C): ~7 fold
7 | HLEVVKLLLEAGADVNAQDK [1CA20-mer] | 1.3 ± 0.2 s⁻¹ | 0.8 ± 0.3 | product accumulation rate, fold faster than the reaction with HIF 35-mer substrates ([1]; rapid quench-flow, 5 °C): ~10 fold
8 | EELAQLAPTPGDAIISLDF [HIF-2α NODD, 19-mer fragment (398–416) of the HIF-2α N-terminal oxygen-dependent degradation domain, PHD2 substrate] |  |  | Km [3]: 410 ± 80 µM

Source: PMC4528135, “Kinetic Investigations of the Role of Factor Inhibiting Hypoxia-inducible Factor (FIH) as an Oxygen Sensor” (The Journal of Biological Chemistry, 2015)
